Laboratory results as given in paper PMC11044151, “Development of Half-Sandwich Ru, Os, Rh, and Ir Complexes Bearing the Pyridine-2-ylmethanimine Bidentate Ligand Derived from 7-Chloroquinazolin-4(3H)-one with Enhanced Antiproliferative Activity” (ACS Omega, 2024).

Key:
HCT116 = assay: cells; conditions: for IC50: read-out: IC50 HCT116, exposure time 72 h, n = 3, 95% CI given; for activity factor IC50(1)/IC50(3a–4d), HCT116: vs corresponding amine (R)-1 or (S)-1, 72 h
Description: (§1) To assess the impact of conjugating half-sandwich complexes with amines 1 via an imine-pyridine ligand on biological activity, we examined the antiproliferative potential of (R)- and (S)-1 and organometallic conjugates 3a–d and 4a–d in selected human cancer cell lines: alveolar basal epithelial cell adenocarcinoma (A549), colorectal adenocarcinomas (Colo205 and SW620), colorectal carcinoma (HCT116), hepatocellular carcinoma (HepG2), and breast adenocarcinoma (MCF7). The choice of cell lines was dictated by results of previously published clinical trials on ispinesib.[49],[50]
(§2) For this purpose, neutral red uptake assay was performed. 10^4 of cells were seeded per well of a 96-well plate and left overnight to allow cells to attach to the surface. Then, the cells were exposed to a desired concentration of tested compounds. Stock solutions were prepared in DMSO and were used immediately after preparation. The final concentration of DMSO was constant and nontoxic (0.1% v/v). After 70 h of culture, neutral red was added to the final concentration of 1 mM. After 2 h of incubation with the dye, the medium was aspirated and cells were washed with ice-cold PBS. The dye was released using 100 μL of the solubilizer (1% acetic acid in 50% ethanol) on an orbital shaker (10 min). The absorbance at 540 nm was measured using an EnVision multilabel plate reader (PerkinElmer). […] The IC90 and IC50 parameters were calculated using GraphPad Prism v9 software using the five-parameter nonlinear logistic regression model.

SW620M = assay: Neutral red uptake antiproliferative assay, MDR line SW620M; type: cell-based, human; conditions: for IC50: exposure time 72 h, n = 3, ABCC1-overexpressing MDR line; for activity factor IC50(1)/IC50(3a–4d), SW620M: vs corresponding amine (R)-1 or (S)-1, 72 h
Description: (§3) Next, we evaluated the cytotoxicity of the synthesized complexes toward the panel of six multidrug-resistant (MDR) cell lines derived from SW620 and characterized by the overexpression of various ABC proteins, namely, ABCG2 (SW620C and SW620Mito), ABCC1 (SW620M and SW620E), and ABCB1 (SW620D, SW620E, and SW620V) (Table 3, Figures S29 and S32). […] The activity of the complexes derived from the ligand (S)-2 is also considerably higher than that of the compounds containing the ligand (R)-2. The cytotoxicity of both rhodium 4c and iridium 4d complexes is higher than that of amine (S)-1. In the case of 4c, the increase in cytotoxicity is low, with the highest value of 3.7-fold for the SW620Mito line. […] Compound 4d also exerts a 2.1- and 2.6-fold higher cytotoxicity than […] against the SW620C and SW620D lines.
(§4) For this purpose, neutral red uptake assay was performed. […] The results were presented as a percentage of control.

MCF7 = assay: cells; conditions: for IC50: read-out: IC50 MCF7, exposure time 72 h, n = 3, 95% CI given; for activity factor IC50(1)/IC50(3a–4d), MCF7: vs corresponding amine (R)-1 or (S)-1, 72 h
Description: as §1
(§5) Cell lines used in this study were purchased from the American Type Culture Collection via LGC Standards. Human normal lung fibroblasts (MRC-5), alveolar basal epithelial cell adenocarcinoma (A549), colorectal adenocarcinoma (Colo205), hepatocellular carcinoma (HepG2), breast adenocarcinoma (MCF7), and colorectal adenocarcinoma (SW620) and its MDR variants[55] were cultured in standard conditions (37 °C, 5% CO2, 100% relative humidity) in high glucose DMEM medium supplemented with GlutaMax, HEPES (ThermoFisher Scientific) and 10% fetal bovine serum (EURx, Poland). All cell lines were tested for Mycoplasma contamination using a MycoProbe mycoplasma detection kit (R&D System).
as §2

HepG2 = assay: cells; conditions: for IC50: read-out: IC50 HepG2, exposure time 72 h, n = 3, 95% CI given; for activity factor IC50(1)/IC50(3a–4d), HepG2: vs corresponding amine (R)-1 or (S)-1, 72 h
Description: as §1, §5, §2

Colo205 = assay: cells; conditions: for IC50: read-out: IC50 Colo205, exposure time 72 h, n = 3, 95% CI given; for activity factor IC50(1)/IC50(3a–4d), Colo205: vs corresponding amine (R)-1 or (S)-1, 72 h
Description: as §1, §5, §2

KSP = target: T1, KSP (Homo sapiens, UniProt P52732); assay: Kinesin ATPase inhibition (ATP hydrolysis) end-point assay; type: biochemical; conditions: for KSP residual activity: 100 nM stated for ispinesib and (R)-1, concentration not restated for the complexes
T1 construct: purchased Cytoskeleton, Inc
T1 sequence (P52732 1-368 limits assumed): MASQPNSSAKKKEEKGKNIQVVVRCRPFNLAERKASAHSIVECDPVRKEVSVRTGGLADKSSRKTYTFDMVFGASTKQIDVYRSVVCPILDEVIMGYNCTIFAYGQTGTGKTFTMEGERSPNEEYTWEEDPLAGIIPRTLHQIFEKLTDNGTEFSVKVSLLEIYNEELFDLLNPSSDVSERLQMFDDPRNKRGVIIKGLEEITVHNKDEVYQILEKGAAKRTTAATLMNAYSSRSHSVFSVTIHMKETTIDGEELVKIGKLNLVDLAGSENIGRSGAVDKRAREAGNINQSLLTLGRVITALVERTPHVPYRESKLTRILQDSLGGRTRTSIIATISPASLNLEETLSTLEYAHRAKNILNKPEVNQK
Procedure: The mechanism of the anticancer activity of ispinesib is related to the inhibition of the activity of the KSP. Thus, we studied the synthesized compounds’ ability to inhibit KSP activity using the adenosine 5′-triphosphate (ATP) hydrolysis assay.
The potential kinesin modulatory activity of tested compounds was performed using a Kinesin ATPase end-point biochem kit (Cytoskeleton, Inc.). […] The experiment was performed according to the manufacturer’s instructions. One μg of tested kinesin (KSP) was used per reaction. Phosphate release was measured at the absorbance 650 nm using an EnVision multilabel plate reader (PerkinElmer).

SW620C = assay: Neutral red uptake antiproliferative assay, MDR line SW620C; type: cell-based, human; conditions: for IC50: exposure time 72 h, n = 3, ABCG2-overexpressing MDR line; for activity factor IC50(1)/IC50(3a–4d), SW620C: vs corresponding amine (R)-1 or (S)-1, 72 h
Description: as §3, §4

SW620D = assay: Neutral red uptake antiproliferative assay, MDR line SW620D; type: cell-based, human; conditions: for IC50: exposure time 72 h, n = 3, ABCB1-overexpressing MDR line; for activity factor IC50(1)/IC50(3a–4d), SW620D: vs corresponding amine (R)-1 or (S)-1, 72 h
Description: as §3, §4

SW620V = assay: Neutral red uptake antiproliferative assay, MDR line SW620V; type: cell-based, human; conditions: for IC50: exposure time 72 h, n = 3, ABCB1-overexpressing MDR line; for activity factor IC50(1)/IC50(3a–4d), SW620V: vs corresponding amine (R)-1 or (S)-1, 72 h
Description: as §3, §4

| IC50 (HCT116) | activity factor IC50(1)/IC50(3a–4d), HCT116 (HCT116) | IC50 (SW620M) | activity factor IC50(1)/IC50(3a–4d), SW620M (SW620M) | IC50 (MCF7) | activity factor IC50(1)/IC50(3a–4d), MCF7 (MCF7) | IC50 (HepG2) | activity factor IC50(1)/IC50(3a–4d), HepG2 (HepG2) | IC50 (Colo205) | activity factor IC50(1)/IC50(3a–4d), Colo205 (Colo205) | KSP residual activity (KSP) | IC50 (SW620C) | activity factor IC50(1)/IC50(3a–4d), SW620C (SW620C) | IC50 (SW620D) | activity factor IC50(1)/IC50(3a–4d), SW620D (SW620D) | IC50 (SW620V) | activity factor IC50(1)/IC50(3a–4d), SW620V (SW620V) | SMILES | other results |
| --- | --- | --- | --- | --- | --- | --- | --- | --- | --- | --- | --- | --- | --- | --- | --- | --- | --- | --- |
| 476 nM | (0.727) | 247 nM | (0.976) | 653 nM | (0.354) | 454 nM | (1.25) | 524 nM | (0.204) | 64.0% | 335 nM | (2.15) | 644 nM | (1.74) | 267 nM | (0.771) | CC(C)[C@@H](N=Cc1ccccn1)c1nc2cc(Cl)ccc2c(=O)n1Cc1ccccc1.Cc1c(C)c(C)[c-](C)c1C.F[P-](F)(F)(F)(F)F.[Cl-].[Ir+3] [Compound 3d, [(Cp*)Ir((R)-2)Cl]PF6] | higher cytotoxicity than corresponding amine 1, SW620C (SW620C; rounded value): 2.2 fold; higher cytotoxicity than corresponding amine 1, SW620D (SW620D; rounded value): 1.7 fold |
| 424 nM | (0.816) | 591 nM | (0.408) | 73 nM | (3.16) | 188 nM | (3.01) | 448 nM | (0.239) | 71.8% | 1170 nM | (0.616) | 3920 nM | (0.286) | 1030 nM | (0.200) | CC(C)[C@@H](N=Cc1ccccn1)c1nc2cc(Cl)ccc2c(=O)n1Cc1ccccc1.Cc1ccc(C(C)C)cc1.F[P-](F)(F)(F)(F)F.[Cl-].[Os+2] [Compound 3b, [(cym)Os((R)-2)Cl]PF6] | increased cytotoxicity vs corresponding amine 1, MCF7 (MCF7): 3 fold; increased cytotoxicity vs corresponding amine 1, HepG2 (HepG2): 3 fold |
| 2880 nM | (0.120) | 3450 nM | (0.070) | 858 nM | (0.269) | 1570 nM | (0.360) | 1260 nM | (0.085) | – | 4380 nM | (0.165) | 7230 nM | (0.155) | 4710 nM | (0.044) | CC(C)[C@@H](N=Cc1ccccn1)c1nc2cc(Cl)ccc2c(=O)n1Cc1ccccc1.Cc1ccc(C(C)C)cc1.F[P-](F)(F)(F)(F)F.[Cl-].[Ru+2] [Compound 3a, [(cym)Ru((R)-2)Cl]PF6] | KSP inhibitory activity (in words) (KSP; 100, 300 and 1000 nM): nonactive |
| 173 nM | (2.00) | 1180 nM | (0.204) | 357 nM | (0.647) | 689 nM | (0.821) | 138 nM | (0.775) | 47.5% | 592 nM | (1.22) | 4180 nM | (0.268) | 210 nM | (0.981) | CC(C)[C@@H](N=Cc1ccccn1)c1nc2cc(Cl)ccc2c(=O)n1Cc1ccccc1.Cc1c(C)c(C)[c-](C)c1C.F[P-](F)(F)(F)(F)F.[Cl-].[Rh+3] [Compound 3c, [(Cp*)Rh((R)-2)Cl]PF6] | – |
